From article PMC3147293 (Cell host & microbe, 2011)
pIC50: −log10 of the molar value. “Also recorded” adds a separate entry of the source. Where no end group is shown, it is not given here.

Columns and labels:
[1] = biological target: CPAF (Chlamydia trachomatis serovar D, UniProt O84866); assay: HPLC assay of CPAF cleavage of Abz-tagged vimentin-derived peptide; type: biochemical
[2] = system: Chlamydia-infected HeLa cells; assay: Death of infected HeLa cells by flow cytometry of PI-stained cells; type: cell-based; details: anti-CPAF peptide at 12 hpi, with/without 40μM Z-VAD-FMK at 3 hpi
[3] = system: recombinant CPAF; details: ~40 ng CPAF, 48μg GST-tagged Chlamydia proteins, 37°C, 20 min; Coomassie
[4] = system: proteasome; assay: Proteasome function in uninfected cells; type: cell-based; details: data not shown
[5] = system: uninfected cells; assay: Toxicity in uninfected cells; type: cell-based; details: data not shown

Chain of CPAF (O84866 276-601): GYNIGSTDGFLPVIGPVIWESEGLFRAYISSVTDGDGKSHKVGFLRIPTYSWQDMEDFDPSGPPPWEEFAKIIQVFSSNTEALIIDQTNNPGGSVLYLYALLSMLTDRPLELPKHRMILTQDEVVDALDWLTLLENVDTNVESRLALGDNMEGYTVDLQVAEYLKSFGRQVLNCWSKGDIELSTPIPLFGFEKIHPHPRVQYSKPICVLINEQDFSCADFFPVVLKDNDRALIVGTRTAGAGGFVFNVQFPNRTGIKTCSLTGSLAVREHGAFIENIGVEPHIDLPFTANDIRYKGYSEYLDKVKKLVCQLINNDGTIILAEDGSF
Chain of CPAF (O84866 24-234): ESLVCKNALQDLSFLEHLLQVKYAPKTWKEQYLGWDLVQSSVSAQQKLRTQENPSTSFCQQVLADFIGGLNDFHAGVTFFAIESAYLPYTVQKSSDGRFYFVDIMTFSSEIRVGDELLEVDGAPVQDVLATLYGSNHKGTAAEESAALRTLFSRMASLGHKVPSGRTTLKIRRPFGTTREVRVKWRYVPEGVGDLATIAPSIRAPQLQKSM

Compound	pIC50 [1]	death of infected cells (PI staining) [2]	inhibition of cleavage of GST-tagged substrates by recombinant CPAF [3]	alteration of proteasome function in uninfected cells [4]	toxicity in uninfected cells [5]
CC(=O)N[C@@H](CSC(=O)[C@]1([C@@H](O)C(C)C)NC(=O)[C@H](C)[C@@H]1O)C(=O)O [Lactacystin, lactacystin, reference compound]	5.00				
NFALSHFRLPLSTYKEMPYVSHWAGRRRRRRRRR [scrambled control peptide]		PI staining was not seen	but not a scrambled control peptide; also recorded: but not the scrambled control peptide		
SLFYSPMVPHFWAELRNHYATSGLKRRRRRRRRR [anti-CPAF peptide]	7.30			did not induce any obvious toxicity or alter proteasome function in uninfected cells	did not induce any obvious toxicity
